Tested on: SW1990
Assay: Induction of apoptosis in human SW1990 cells assessed as viable cells at 4 uM measured after 24 hrs by PI/Annexin V staining based flow cytometric analysis (reference value: 82.9%)
Assay type: functional
Conditions: read-out: Activity

COc1ccc(C(F)(F)F)cc1-c1cc2c(N3CC4CCC(C3)N4)ncnc2s1
viability at 4 µM: 47.9%

From ChEMBL document CHEMBL5154793, “Discovery of Thieno[2,3-d]pyrimidine-based KRAS G12D inhibitors as potential anticancer agents via combinatorial virtual screening” (Eur J Med Chem, 2022)
